Assay [1] has as its target T1, proteasome in Molt-4 cells (human leukemia) (Homo sapiens, UniProt P20618+P28074).
T1 sequence (P28074 60-263): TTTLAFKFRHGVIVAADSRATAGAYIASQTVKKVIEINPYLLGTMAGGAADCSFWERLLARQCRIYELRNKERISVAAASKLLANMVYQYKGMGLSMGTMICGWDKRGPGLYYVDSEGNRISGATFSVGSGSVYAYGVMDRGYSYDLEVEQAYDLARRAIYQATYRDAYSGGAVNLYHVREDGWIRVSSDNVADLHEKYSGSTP
T1 sequence (P20618 29-241): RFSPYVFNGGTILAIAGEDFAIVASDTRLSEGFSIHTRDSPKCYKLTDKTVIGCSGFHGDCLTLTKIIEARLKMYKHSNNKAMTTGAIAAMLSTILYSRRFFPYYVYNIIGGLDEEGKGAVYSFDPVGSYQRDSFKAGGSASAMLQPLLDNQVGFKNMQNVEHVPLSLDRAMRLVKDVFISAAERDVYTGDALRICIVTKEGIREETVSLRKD
It is filed as cell-based. The note with it: assay of Example E, inhibition of MOLT4; read-out: MOLT4 (EC50). An outline of the steps:
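Intact Molt-4 cells (6×10^6 cells/mL) in HEPES-buffered saline were preincubated with inhibitor 15 min at 37 °C, then given cell-permeable MeOSuc-FLF-AFC at 25 μM final.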

In assay [2] the target is T2, 20S Human Erythrocyte Proteasome (HEP) (Homo sapiens, UniProt P20618+P28074).
T2 construct: 20S Human Erythrocyte Proteasome (HEP), purchased from Immatics Biotechnologies Inc; purchased Immatics Biotechnologies Inc., Tübingen, Germany; host or cells: human erythrocytes (natural source)
Put plainly: Chymotrypsin-like activity of 20S Human Erythrocyte Proteasome (HEP), IC50 determination. It is filed as biochemical. The note with it: assay of Example C, inhibition of HEP. The procedure, abridged: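 20S proteasome at 0.2 μg/mL (about 0.6 nM catalytic sites) in 20 mM Tris with 0.04% SDS, preincubated 15 min at 37° C with inhibitor before Suc-LLVY-AMC (100 μM final). AMC fluorescence read in the linear range; triplicates, IC50 from concentration series.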

Bounds are passed on as bounds.

The term EC50 denotes the midpoint of the concentration-response curve. As a reminder, the IC50 is the concentration that gives 50% inhibition. A high value points to a need for much substance.

Regarding `COc1ccc(C(=O)N[C@@H](CCCNC(=N)N[N+](=O)[O-])C(=O)N[C@@H](CC(C)C)B2O[C@@H]3C[C@@H]4C[C@@H](C4(C)C)[C@]3(C)O2)cc1F` [D.3.94, 3-Fluoro-4-methoxybenzamide,N-[(1S)-1-[[[(1R)-1-[(3aS,4S,6S,7aR)-hexahydro-3a,5,5-trimethyl-4,6-methano-1,3,2-benzodioxaborol-2-yl]-3-methylbutyl]amino]carbonyl]-4-[[imino(nitroamino)methyl]amino]butyl]], the EC50 in assay [1] is below 200 nM. The IC50 in assay [2] was below 10 nM.
Taken in the same sequence, the figures for `CCCCCC/C=C/C(=O)N[C@@H](CCCNC(=N)N[N+](=O)[O-])C(=O)N[C@@H](CC(C)C)B1O[C@@H]2C[C@@H]3C[C@@H](C3(C)C)[C@]2(C)O1` [D.3.96, Non-2-enoic acid amide,N-[(1S)-1-[[[(1R)-1-[(3aS,4S,6S,7aR)-hexahydro-3a,5,5-trimethyl-4,6-methano-1,3,2-benzodioxaborol-2-yl]-3-methylbutyl]amino]carbonyl]-4-[[imino(nitroamino)methyl]amino]butyl]] were below 200 nM and below 10 nM.
With `CC(C)C[C@H](NC(=O)[C@H](CCCNC(=N)N[N+](=O)[O-])NC(=O)/C=C/c1ccc2ccccc2c1)B1O[C@@H]2C[C@@H]3C[C@@H](C3(C)C)[C@]2(C)O1` [D.3.97, (E)-3-(Naphthalen-2-yl)acrylamide,N-[(1S)-1-[[[(1R)-1-[(3aS,4S,6S,7aR)-hexahydro-3a,5,5-trimethyl-4,6-methano-1,3,2-benzodioxaborol-2-yl]-3-methylbutyl]amino]carbonyl]-4-[[imino(nitroamino)methyl]amino]butyl]], the 50% effective concentration (EC50) in assay [1] is below 200 nM. The same compound showed an IC50 in assay [2] below 10 nM.
For `CCCCCCCCCCCCCC(=O)N[C@@H](CCCNC(=N)N[N+](=O)[O-])C(=O)N[C@@H](CC(C)C)B1O[C@@H]2C[C@@H]3C[C@@H](C3(C)C)[C@]2(C)O1` [D.3.102, Tetradecanamide,N-[(1S)-1-[[[(1R)-1-[(3aS,4S,6S,7aR)-hexahydro-3a,5,5-trimethyl-4,6-methano-1,3,2-benzodioxaborol-2-yl]-3-methylbutyl]amino]carbonyl]-4-[[imino(nitroamino)methyl]amino]butyl]], the EC50 in assay [1] was 200 to 2000 nM. In addition, the concentration for half-maximal inhibition (IC50) in assay [2] was below 10 nM.
Taken in the same sequence, the figures for `CC(C)C[C@H](NC(=O)[C@H](CCCNC(=N)N[N+](=O)[O-])NC(=O)CCc1c[nH]c2ccccc12)B1O[C@@H]2C[C@@H]3C[C@@H](C3(C)C)[C@]2(C)O1` [D.3.103, 3-(1H-Indol-3-yl)-propanamide,N-[(1S)-1-[[[(1R)-1-[(3aS,4S,6S,7aR)-hexahydro-3a,5,5-trimethyl-4,6-methano-1,3,2-benzodioxaborol-2-yl]-3-methylbutyl]amino]carbonyl]-4-[[imino(nitroamino)methyl]amino]butyl]] were 200 to 2000 nM and below 10 nM.
Turning to `CC(C)C[C@H](NC(=O)[C@H](CCCNC(=N)N[N+](=O)[O-])NC(=O)CCCOc1ccccc1)B1O[C@@H]2C[C@@H]3C[C@@H](C3(C)C)[C@]2(C)O1` [D.3.104], the EC50 in assay [1] lay in the range of 200 to 2000 nM. In assay [2], the IC50 is below 10 nM.
On to `CC(C)C[C@H](NC(=O)[C@H](CCCNC(=N)N[N+](=O)[O-])NC(=O)CCCC(=O)c1ccccc1)B1O[C@@H]2C[C@@H]3C[C@@H](C3(C)C)[C@]2(C)O1` [D.3.105, 5-Oxo-5-phenyl-pentanamide,N-[(1S)-1-[[[(1R)-1-[(3aS,4S,6S,7aR)-hexahydro-3a,5,5-trimethyl-4,6-methano-l,3,2-benzodioxaborol-2-yl]-3-methylbutyl]amino]carbonyl]-4-[[imino(nitroamino)methyl]amino]butyl]], for which, in assay [1], the EC50 is 200 to 2000 nM. This compound also displayed an IC50 in assay [2] below 10 nM.
Taken in the same sequence, the figures for `CC(C)C[C@H](NC(=O)[C@H](CCCNC(=N)N[N+](=O)[O-])NC(=O)CCCCCCCc1ccccc1)B1O[C@@H]2C[C@@H]3C[C@@H](C3(C)C)[C@]2(C)O1` [D.3.117, 8-Phenyl-octanamide,N-[(1S)-1-[[[(1R)-1-[(3aS,4S,6S,7aR)-hexahydro-3a,5,5-trimethyl-4,6-methano-1,3,2-benzodioxaborol-2-yl]-3-methylbutyl]amino]carbonyl]-4-[[imino(nitroamino)methyl]amino]butyl]] were below 200 nM and below 10 nM.
On the same counts, the results for `CCCCCCCCCCCCC(=O)N[C@@H](CCCNC(=N)N[N+](=O)[O-])C(=O)N[C@@H](CC(C)C)B1O[C@@H]2C[C@@H]3C[C@@H](C3(C)C)[C@]2(C)O1` [D.3.119, Tridecanamide,N-[(1S)-1-[[[(1R)-1-[(3aS,4S,6S,7aR)-hexahydro-3a,5,5-trimethyl-4,6-methano-1,3,2-benzodioxaborol-2-yl]-3-methylbutyl]amino]carbonyl]-4-[[imino(nitroamino)methyl]amino]butyl]] are below 200 nM and below 10 nM.
On to `CC(C)C[C@H](NC(=O)[C@H](CCCNC(=N)N[N+](=O)[O-])NC(=O)CCCNC(=O)OCC1c2ccccc2-c2ccccc21)B1O[C@@H]2C[C@@H]3C[C@@H](C3(C)C)[C@]2(C)O1` [D.3.122, [[[(9H-fluoren-9-yl)methoxy]carbonyl]amino]butanamide, N-[(1S)-1-[[[(1R)-1-[(3aS,4S,6S,7aR)-hexahydro-3a,5,5-trimethyl-4,6-methano-1,3,2-benzodioxaborol-2-yl]-3-methylbutyl]amino]carbonyl]-4-[[imino(nitroamino)methyl]amino]butyl]], for which the half-maximal effective concentration (EC50) in assay [1] is below 200 nM. Further, the IC50 in assay [2] is below 10 nM.
As to `CC(C)C[C@H](NC(=O)[C@H](CCCNC(=N)N[N+](=O)[O-])NC(=O)CCCCc1ccc(F)cc1)B1O[C@@H]2C[C@@H]3C[C@@H](C3(C)C)[C@]2(C)O1` [D.3.124, 5-(4-Fluorophenyl)-pentanamide,N-[(1S)-1-[[[(1R)-1-[(3aS,4S,6S,7aR)-hexahydro-3a,5,5-trimethyl-4,6-methano-1,3,2-benzodioxaborol-2-yl]-3-methylbutyl]amino]carbonyl]-4-[[imino(nitroamino)methyl]amino]butyl]], the 50% effective concentration (EC50) in assay [1] is below 200 nM. The same compound came in with an IC50 in assay [2] below 10 nM.
On the same counts, the results for `CC(C)C[C@H](NC(=O)[C@H](CCCNC(=N)N[N+](=O)[O-])NC(=O)CCCCCCC(=O)c1ccccc1)B1O[C@@H]2C[C@@H]3C[C@@H](C3(C)C)[C@]2(C)O1` [D.3.125, 8-Oxo-8-phenyloctanamide,N-[(1S)-1-[[[(1R)-1-[(3aS,4S,6S,7aR)-hexahydro-3a,5,5-trimethyl-4,6-methano-l,3,2-benzodioxaborol-2-yl]-3-methylbutyl]amino]carbonyl]-4-[[imino(nitroamino)methyl]amino]butyl]] are below 200 nM and below 10 nM.
Taken in the same sequence, the figures for `CC(C)C[C@H](NC(=O)[C@H](CCCNC(=N)N[N+](=O)[O-])NC(=O)CCCc1cccs1)B1O[C@@H]2C[C@@H]3C[C@@H](C3(C)C)[C@]2(C)O1` [D.3.126, 4-(Thiophen-2-yl)butanamide,N-[(1S)-1-[[[(1R)-1-[(3aS,4S,6S,7aR)-hexahydro-3a,5,5-trimethyl-4,6-methano-1,3,2-benzodioxaborol-2-yl]-3-methylbutyl]amino]carbonyl]-4-[[imino(nitroamino)methyl]amino]butyl]] were below 200 nM and below 10 nM.
Taken in the same sequence, the figures for `CC(C)C[C@H](NC(=O)[C@H](CCCNC(=N)N[N+](=O)[O-])NC(=O)Cc1cccc(Cl)c1)B1O[C@@H]2C[C@@H]3C[C@@H](C3(C)C)[C@]2(C)O1` [D.3.128, 2-(3-Chlorophenyl)acetamide,N-[(1S)-1-[[[(1R)-1-[(3aS,4S,6S,7aR)-hexahydro-3a,5,5-trimethyl-4,6-methano-1,3,2-benzodioxaborol-2-yl]-3-methylbutyl]amino]carbonyl]-4-[[imino(nitroamino)methyl]amino]butyl]] were 200 to 2000 nM and below 10 nM.
Turning to `CCCCCCCCCCC(=O)N[C@@H](CCCNC(=N)N[N+](=O)[O-])C(=O)N[C@@H](CC(C)C)B1O[C@@H]2C[C@@H]3C[C@@H](C3(C)C)[C@]2(C)O1` [D.3.129, Undecanamide,N-[(1S)-1-[[[(1R)-1-[(3aS,4S,6S,7aR)-hexahydro-3a,5,5-trimethyl-4,6-methano-1,3,2-benzodioxaborol-2-yl]-3-methylbutyl]amino]carbonyl]-4-[[imino(nitroamino)methyl]amino]butyl]], the EC50 in assay [1] is below 200 nM. The IC50 in assay [2] was below 10 nM.
Taken in the same sequence, the figures for `CC(C)C[C@H](NC(=O)[C@H](CCCNC(=N)N[N+](=O)[O-])NC(=O)CCCCCc1ccccc1)B1O[C@@H]2C[C@@H]3C[C@@H](C3(C)C)[C@]2(C)O1` [D.3.131, 6-Phenylhexanamide,N-[(1S)-1-[[[(1R)-1-[(3aS,4S,6S,7aR)-hexahydro-3a,5,5-trimethyl-4,6-methano-1,3,2-benzodioxaborol-2-yl]-3-methylbutyl]amino]carbonyl]-4-[[imino(nitroamino)methyl]amino]butyl]] were below 200 nM and below 10 nM.
